Tested on: male monkey (a cynomolgus monkey)
Test: Intraocular pressure lowering activity after ocular instillation
Assay type: in vivo
Settings: Primates, in Macaca fascicularis, topical, maximum rate during 24 hours after ocular instillation of 30 μL, conscious monkey; for inhibition in vivo at 10 µg/mL: administration concentration 10 μg/mL; for inhibition in vivo at 3 µg/mL: administration concentration 3 μg/mL
Description: As can be easily understood by a person skilled in the art, in an in vivo test, since regarding all test compounds, carboxylic acid which is an active body has poor corneal permeability, pharmacological action of the active body was evaluated by ocular instillation administration of a compound which had been converted into an ester such as an ethyl ester or an isopropyl ester, or an alcohol.
A test compound-containing solution (30 μL) which had been adjusted to each of various concentrations was ocular instillation-administered to the left or right eye of a male monkey (a cynomolgus monkey) under consciousness. An intraocular pressure after administration was measured with time from administration initiation to after 24 hours. Upon measurement of an intraocular pressure, a cynomolgus monkey was fixed on a monkey chair, and the monkey was anesthetized by ocular instillation-administering an ocular surface anesthetic (Benoxil eye drops 0.4% Santen Pharmaceutical Co., Ltd.). After mounting of a blepharostat (Handaya Co., Ltd.), an intraocular pressure of both eyes was measured (7 to 8 examples per group) using a pneumatic applanation flat tonometer (Model 30 Classic, REICHERT). A difference between an intraocular pressure value before the administration of a test substance and an intraocular pressure value after the administration of the test substance was calculated as an intraocular pressure lowering rate in accordance with the following equation, and the sustainability of intraocular eye lowering action was evaluated using a maximum intraocular pressure lowering rate during measurement.
The administered concentrations were determined based on the EP2 agonist activities measured by the above-mentioned method.

## OCc1csc([C@H]2CC[C@@H]3[C@@H](COc4ccc5c(c4)CCCC5)[C@@H](O)C[C@@H]3O2)n1 [10(7), (2R,4aR,5S,6S,7aS)-2-[4-(hydroxymethyl)-1,3-thiazol-2-yl]-5-[(5,6,7,8-tetrahydro-2-naphthalenyloxy)methyl]octahydrocyclopenta[b]pyran-6-ol]
  inhibition in vivo at 10 µg/mL: 41%

## CSc1cc(OC[C@@H]2[C@H]3CC[C@H](c4nc(CO)cs4)O[C@H]3C[C@@H]2O)ccc1C [10(12), (2R,4aR,5S,6S,7aS)-2-[4-(hydroxymethyl)-1,3-thiazol-2-yl]-5-{[4-methyl-3-(methylthio)phenoxy]methyl}octahydrocyclopenta[b]pyran-6-ol]
Administration concentration 0.3 μg/mL
  inhibition in vivo at 0.3 µg/mL: 33%

## CCc1ccc(OC[C@@H]2[C@H]3CC[C@H](c4nc(CO)cs4)O[C@H]3C[C@@H]2O)cc1C1CC1 [10(15), (2R,4aR,5S,6S,7aS)-5-[(3-cyclopropyl-4-ethylphenoxy)methyl]-2-[4-(hydroxymethyl)-1,3-thiazol-2-yl]octahydrocyclopenta[b]pyran-6-ol]
  inhibition in vivo at 3 µg/mL: 37%

## OCc1csc([C@H]2CC[C@@H]3[C@@H](COc4ccc5c(c4)CCCCC5)[C@@H](O)C[C@@H]3O2)n1 [10(16), (2R,4aR,5S,6S,7aS)-2-[4-(hydroxymethyl)-1,3-thiazol-2-yl]-5-[(6,7,8,9-tetrahydro-5H-benzo[7]annulen-2-yloxy)methyl]octahydrocyclopenta[b]pyran-6-ol]
  inhibition in vivo at 10 µg/mL: 45%

## CCc1ccc(OC[C@@H]2[C@H]3CC[C@H](c4nc(CO)cs4)O[C@H]3C[C@@H]2O)cc1C1CCC1 [10(17), (2R,4aR,5S,6S,7aS)-5-[(3-cyclobutyl-4-ethylphenoxy)methyl]-2-[4-(hydroxymethyl)-1,3-thiazol-2-yl]octahydrocyclopenta[b]pyran-6-ol]
Administration concentration 100 μg/mL
  inhibition in vivo at 100 µg/mL: 57%

## Cc1ccc(OC[C@@H]2[C@H]3CC[C@H](c4nc(CO)cs4)O[C@H]3C[C@@H]2O)cc1Cl [10(21), (2R,4aR,5S,6S,7aS)-5-[(3-chloro-4-methylphenoxy)methyl]-2-[4-(hydroxymethyl)-1,3-thiazol-2-yl]octahydrocyclopenta[b]pyran-6-ol]
Administration concentration 1 μg/mL
  inhibition in vivo at 1 µg/mL: 44%

## OCc1csc([C@H]2CC[C@@H]3[C@@H](COc4ccc5c(c4F)CCC5)[C@@H](O)C[C@@H]3O2)n1 [10(22), (2R,4aR,5S,6S,7aS)-5-{[(4-fluoro-2,3-dihydro-1H-inden-5-yl)oxy]methyl}-2-[4-(hydroxymethyl)-1,3-thiazol-2-yl]octahydrocyclopenta[b]pyran-6-ol]
  inhibition in vivo at 3 µg/mL: 43%

## CCc1ccc(OC[C@@H]2[C@H]3CC[C@H](c4nc(CO)cs4)O[C@H]3C[C@@H]2O)cc1CC [10(32), (2R,4aR,5S,6S,7aS)-5-[(3,4-diethylphenoxy)methyl]-2-[4-(hydroxymethyl)-1,3-thiazol-2-yl]octahydrocyclopenta[b]pyran-6-1]
  inhibition in vivo at 3 µg/mL: 41%

## OCc1csc([C@H]2CC[C@@H]3[C@@H](COc4ccc(C5CC5)c(C5CC5)c4)[C@@H](O)C[C@@H]3O2)n1 [Example 10, (2R,4aR,5S,6S,7aS)-5-[(3,4-dicyclopropylphenoxy)methyl]-2-[4-(hydroxymethyl)-1,3-thiazol-2-yl]octahydrocyclopenta[b]pyran-6-ol]
  inhibition in vivo at 10 µg/mL: 40%

From patent US9890146B2, “Compound having selective EP2 agonist activity” (ONO PHARMACEUTICAL CO., LTD., priority 2014, dated 2018)
